Experimental data: patent US20040076663A1, “Complexed-acidic-phospholipid-collagen composites for bone induction” (priority 2002, published 2004)

Test system: human osteoblast-like cells, MG-63
Assay: Cell binding to complexed acidic phospholipid collagen composite (cell adherence and proliferation)
Format: cell-based
Conditions: MG-63 cell cultures; composite sterilized under UV light
Excerpt: Before usage, the prepared composite was sterilized under UV light.

For fibronectin, the “cell adherence and proliferation” value was “some cells remain in clumps and there appeared to be fewer cells that adhered compared to those exposed to either of the composite formulations”.
